Entries after “also recorded” stand apart in the source; their conditions may differ. Where a name gives a salt, the structure may show the parent alone. Marks after values point to notes of the source that are not given here.
Tests used:
[1] = Reaction kinetics and reversibility of probe with GSH (UV-Vis); settings: 10 mM GSH in PBS, room temperature; TQ Green 16 μM, probe 3a 10 μM
Experimental: The reaction between TQ Green and GSH is reversible.
The second-order rate constant between TQ Green and GSH is 0.150±0.001M^−1·s^−1. There were no appreciable Abs changes observed after 20 minutes. Following a pause for another 80 minutes to ensure that the equilibrium between TQ Green and GSH was fully established, Applicants added two equivalents of an irreversible Michael acceptor (5,6-dihydro-2H-pyran-2-one) to deplete all the GSH in solution (FIG. 4A).
GSH in PBS was added to a solution of TQ Green in PBS buffer (10 mM, pH 7.4) containing 1% DMSO. The final concentrations of GSH and TQ Green were 10 mM and 16 μM, respectively. The solutions were then monitored continuously with UV-Vis spectrometer (FIGS. 21A-D).

[2] = Solubility; type: physicochemical; settings: for solubility: PBS buffer, aqueous buffer
[3] = Equilibrium (dissociation constant) of probe and GSH reaction, UV-Vis/fluorescence; type: binding; settings: reaction with various concentration of GSH in water/PBS pH 7.4; based on UV-Vis; read-out: Kd′ observed (apparent) dissociation constant
Experimental: Applicants also determined Keq between TQ Green and GSH and the relationship of the ratiometric change as a function of GSH concentration. Kd′ is the apparent dissociation constant for the reaction between TQ Green and GSH. The following equation can be derived:
Plotting (R−Rmin)/(Rmax−R) as a function of GSH concentration afforded a superb linear relationship with r^2=0.999 (FIGS. 6-7).
TQ Green was dissolved in PBS buffer (10 mM, pH 7.4) containing 1% DMSO with concentration at 32 μM. GSH was dissolved in the same PBS buffer with concentration from 0-80 mM. Above solutions were mixed at 1:1 ratio. All solutions were protected with nitrogen and stored in glove box to prevent any oxygen entering the solution. Samples of all solutions were taken out at 1, 18, 72, and 144 hours after mixing. UV-Vis and fluorescence were measured for all solutions.
(§1) Compounds 3b-d were dissolved in DMSO (10 mM) and 1 eq of 2 M β-mercaptoethanol (BME) was added. Compounds 3a and TQ Green were dissolved in PBS buffer (10 mM, pH 7.4) with 1% DMSO. GSH solution was added to reach a final concentration of 80 mM with compound 3a at 10 μM and TQ Green at 16 μM, respectively. All solutions were then monitored continuously with UV-Vis and fluorimeter for 2 hours (Table 1).

[4] = UV-Vis absorption, fluorescence and quantum yield; type: physicochemical; settings: for Quantum Yield (PBS): λex = 479 nm (TQ Green), 406 nm (TQ Green-GSH)
Source text: TQ Green absorbs at 479 nm and fluoresces at 590 nm (λex=488 nm, FIG. 3). The extinction coefficients of TQ Green and TQ Green-GSH at their maximum absorption wavelengths are (2.3±0.2)×10^4 M^−1·cm^−1 (a, =479 nm, Table 2) and (1.6±0.2)×10^4 M^−1·cm^−1 (λmax=407 nm, Table 1), respectively. Upon reacting with GSH, the Abs and Fl peaks shift hypsochromically to 406 and 463 nm (λex=405 nm), respectively. The Abs of TQ Green and TQ Green-GSH (the adduct between TQ Green and GSH) are close to 488 and 405 nm, respectively, which are two commonly used laser wavelengths for confocal microscopes. […]
NMR spectra were recorded on a Varian NMR (^1H at 400 MHz) spectrometer. Chemical shifts (δ) were given in ppm with reference to solvent signals [^1H NMR: CDCl3 (7.26), CD3OD (3.31)]. UV-Vis measurements were performed with 2×10 mm quartz cuvette in Cary 60 UV-is Spectrometer. Fluorescence measurements were performed with the same quartz cuvette in Cary Eclipse Fluorescence Spectrophotometer with an excitation slit of 5 nm, an emission slit of 10 nm and PMT at 650 V. Flash chromatography was performed on a Teledyne ISCO CombiFlashRf200. Olympus FV1000 laser scanning confocal microscope system was used for cell imaging. ESI mass spectrometry was measured on a BrukerMS microTOF ESI, at the Shared Equipment Authority at Rice University. Flow cytometry was performed on BD LSR II Flow Cytometer at BCM core facilities.
As summarized in Table 5, quantum yields of synthesized GSH probes and a GSH adduct with Rhodamine 123 as the standard were analyzed. Quantum yields were determined using a comparative method described previously. The bromine atom on the phenyl ring potentially enhances the push-pull effect of the coumarin-based fluorophore, thus increases the quantum yield.

[5] = Reactivity of probes against β-mercaptoethanol in DMSO; type: binding
Experimental: as §1

[6] = system: PANC-1 cells; test: GSH level changes in PANC-1 cells upon DEM treatment (TQ Green live imaging); type: cell-based
Experimental: PANC-1 cells were treated with diethyl maleate (50 μM) for 24 hours and 2 hours to inhibit and stimulate GSH levels, respectively. All the cells were imaged 24 hours after starting the experiment. Results are statistical analyses of more than 25 cells. P values shown are based on unpaired student t-tests. Error bars represent standard deviations.
Applicants also treated PANC-1 cells with DEM for a very short time to stimulate the uptake of cysteine, thus increasing the GSH levels. After removal of DEM, the cells were further incubated under normal conditions for an additional 22 hours before imaging. […] Importantly, the GSH level obtained in DEM non-treated cells after 24 hours was essentially the same as the value measured at time zero (P=0.63), indicating excellent reproducibility of live imaging based GSH quantification.
PANC-1 cells were incubated with DEM (50 μM) for 2 hours for stimulation of cysteine uptake. After replacing with fresh medium, cells were cultured at normal conditions for another 22 hours. A separate dish of PANC-1 cells were incubated with DEM (50 μM) as an inhibitor for 24 hours. […] GSH concentrations were calculated based on the calibration curve. FACS was performed from harvested cells after treatment, fluorescent intensities were recorded with 405 nm laser/420-460 nm filter (pacific blue channel), and 488 nm laser/515-545 nm filter (FITC channel). […]

[7] = 10 mM solution, capped tube, 10 hour time period, HPLC 254 nm
Experimental: A GSH solution (10 mM) was placed in a capped Eppendorf tube. Samples of solution were taken out for HPLC measurement every two hours. […] The percentage was calculated from the HPLC peak area monitored at 254 nm.

[8] = methanol; cited from earlier work
[9] = Hydrolysis of TQ Green-AM in PBS and diluted HeLa cell lysate (HPLC UV-vis/MS); type: in vitro ADME; settings: 40 μM, 37° C.
Experimental: In order to allow TQ Green to efficiently penetrate into cells for GSH measurements, Applicants converted the carboxylic acid group to an acetoxymethyl (AM) ester (FIG. 10). Once inside cells, the AM ester will be readily hydrolyzed by esterases to regenerate TQ Green. To verify this, Applicants incubated TQ Green-AM (FIG. 11, 40 μM) in PBS for 2 hours and in a 500 times diluted HeLa cell lysate for 10 hours at 37° C. (Note: the dilution factor for the cell lysate is calculated based on the fact that ˜400,000 of HeLa cells, which have a total volume of ˜2 μL, were lysed in 1 mL of lysis buffer, resulting in 500 times dilution of cellular components, Table 3). A mixture of TQ Green and TQ Green-AM standard samples and the reaction mixtures after incubation in PBS and in cell lysate were separated using high performance liquid chromatography (HPLC) with a tandem of UV-vis and mass spectrometer (MS) detectors.
TQ Green-AM (40 μM) was incubated in PBS for 2 hours and in a 500 times diluted HeLa cell lysate for 10 hours at 37° C. The reaction products were analyzed by HPLC with a tandem of UV-vis and MS detectors. Analytical standards TQ Green and TQ Green-AM (red trace C) were used to determine the retention time of the corresponding compounds. […] Under the elution conditions used, TQ Green and TQ Green-GSH cannot be separated. However, their identities were confirmed by MS. […]

[10] = system: cells; test: Confocal imaging of probe interacting with cells (cell penetration); type: cell-based
Experimental: FIG. 10 provides confocal images at 488 nm channel of TQ Green (acid form, FIG. 10A), and TQ Green-AM (ester form, FIG. 10B) interacting with cells.
All cell lines used in this study were purchased from American Type Culture Collection (ATCC) and grown in DMEM (Gibco, 11965) media supplemented with 10% FBS and 1% 1003 Pen Strep (Gibco). Cells were cultured under a controlled atmosphere (37° C., 5% CO2). Glass dishes were used for cell culture due to confocal scanning requirements. Cells were treated with TQ Green-AM (20 nM-1 μM with 0.0025-1% DMSO in PBS) for 30 minutes, followed by two washing steps with tryptan blue and PBS prior to imaging. Fluorescent images were acquired with 405 nm laser/430-470 nm filter and 488 nm laser/575-620 nm filter. All the microscope settings were kept consistent in each experiment.

[11] = Log D in octanol-PBS (pH 7.4) biphasic system; type: physicochemical; settings: pH 7.4, read-out: Log D, estimated value based on HPLC result
Source text: To further understand TQ Green distribution between hydrophobic and hydrophilic environments, Applicants measured the Log D values of TQ Green and TQ Green-GSH using an octanol-PBS (pH 7.4) biphasic system (Table 2). […] In addition, Applicants discovered that the absorbance maximum of TQ Green shifts from 480 nm to 455 nm when changing the solvents from PBS to octanol. Applicants hypothesize that if TQ Green is distributed in lipid membranes, the absorbance maximum and fluorescence intensity will change. […] Consistent with the Log D measurements, this experiment also supports the hypothesis that TQ Green accumulates in lipid membranes. Considering the high quantum yield of TQ Green in hydrophobic solvents, lipid enrichment of TQ Green seemingly complicates intracellular GSH quantification. […] However, the Kd′ values may be different under calibration conditions and inside cells, which may introduce a systemic error.

[12] = cited from earlier work

CCN(CC)c1ccc2cc(/C=C/C(=O)c3ccc(C(=O)O)cc3)c(=O)oc2c1 [Compound 3a]
Time to reach 95% of conversion [1]: ~6 min | solubility [2]: > 500 µM | Kd [3]: 1500 µM | Quantum Yield (Methanol) ([4]; methanol, Rhodamine 123 as standard): 0.062 ± 0.002

CCN(CC)c1ccc2cc(/C=C/C(=O)c3ccccc3)c(=O)oc2c1 [Compound 3b]
solubility [2]: < 10 µM

CCN(CC)c1ccc2cc(/C=C(\C)C(=O)c3ccccc3)c(=O)oc2c1 [Compound 3c]
solubility [2]: < 10 µM | Michael addition between thiol and probe [5]: significantly blocks the Michael addition

CCN(CC)c1ccc2cc(/C=C/C(=O)c3ccccc3O)c(=O)oc2c1 [Compound 3d]
solubility [2]: < 10 µM | Kd ([5]; β-mercaptoethanol in DMSO, read-out: Kd′ observed dissociation constant): ~2000 µM

CCOC(=O)/C=C\C(=O)OCC [DEM, diethyl maleate]
Increase in GSH levels ([6]; 50 μM for 2 hours, then 22 hours normal conditions (stimulation)): 28% | Decrease in GSH levels ([6]; 50 μM for 24 hours (inhibition)): 27%

N[C@@H](CCC(=O)N[C@@H](CS)C(=O)NCC(=O)O)C(=O)O [GSH, glutathione]
Solubility in octanol [2]: not soluble | GSH oxidized in air [7]: About 20%

COC(=O)c1ccccc1-c1c2ccc(=N)cc-2oc2cc(N)ccc12.Cl [Rhodamine 123]
Quantum Yield, used as standard [8]: 0.94*

CCN(CC)c1ccc2cc(/C=C/C(=O)c3ccc(C(=O)OCOC(C)=O)cc3Br)c(=O)oc2c1 [TQ Green-AM]
Hydrolysis in diluted cell lysate ([9]; 500 times diluted HeLa cell lysate, 10 hours): completely converted to a mixture of TQ Green and TQ Green-GSH adduct; also recorded: completely hydrolyzed | Hydrolysis in PBS ([9]; PBS, 2 hours): resistant to hydrolysis; also recorded: did not show appreciable hydrolysis | Cell penetration (confocal, 488 nm channel) [10]: able to penetrate through cell the membrane

CCN(CC)c1ccc2cc(C(CC(=O)c3ccc(C(=O)O)cc3Br)SCC(NC(=O)CCC(N)C(=O)O)C(=O)NCC(=O)O)c(=O)oc2c1 (stereo not shown) [TQ Green-GSH]
Solubility in methanol ([2]; methanol): ^aTQ Green-GSH is not soluble in methanol | Solubility in octanol [2]: not soluble | logD [11]: < -1 | Abs Max Wavelength ([4]; PBS pH 7.4): 406 nm | Fl Emission Max Wavelength ([4]; PBS pH 7.4, λex = 488 nm (TQ Green), λex = 405 nm (TQ Green-GSH)): 463 nm | Quantum Yield (PBS) [4]: 0.0059±0.0003 | Quantum Yield (PBS) ([4]; listed as drawing 20): 0.0059 ± 0.0003

FC(F)(F)c1ccc(S)cc1 [p-trifluorobenzenethiol]
pKa [12]: 5.5
